Measured values taken from ChEMBL document CHEMBL4138286, “ent-Jungermannenone C Triggers Reactive Oxygen Species-Dependent Cell Differentiation in Leukemia Cells” (J Nat Prod, 2018).
pIC50: −log10 of the molar value. Calls of active or inactive are those of the source. The rule behind the calls is not given here.

How the values were obtained:
[1] = Cytotoxicity against PBMC (unknown origin) assessed as cell viability at 20 uM after 24 hrs by trypan blue exclusion assay relative to control; format: cell-based; conditions: read-out: Activity
[2] = tested on: PBMC; experiment: Cytotoxicity against PBMC (unknown origin) assessed as reduction in cell viability at 1 to 20 uM after 24 hrs by trypan blue exclusion assay; format: cell-based
[3] = tested on: SU-DHL-2; experiment: Cytotoxicity against human SU-DHL-2 cells assessed as reduction in cell viability after 24 hrs by CellTiter-Glo assay; format: functional, cell-based; conditions: SU-DHL-2, 24 h
[4] = Cytotoxicity against human OCI-Ly8 cells assessed as reduction in cell viability after 24 hrs by CellTiter-Glo assay; format: functional, cell-based; conditions: OCI-Ly8, 24 h
[5] = molecular target: T1, Peroxiredoxin-1 (Homo sapiens) (UniProt Q06830); experiment: Binding affinity to wild type recombinant human N-terminal 6His-tagged peroxiredoxin-1 expressed in Escherichia coli BL21 after 1 hr by LC-MS/MS analysis
T1 sequence (whole entry): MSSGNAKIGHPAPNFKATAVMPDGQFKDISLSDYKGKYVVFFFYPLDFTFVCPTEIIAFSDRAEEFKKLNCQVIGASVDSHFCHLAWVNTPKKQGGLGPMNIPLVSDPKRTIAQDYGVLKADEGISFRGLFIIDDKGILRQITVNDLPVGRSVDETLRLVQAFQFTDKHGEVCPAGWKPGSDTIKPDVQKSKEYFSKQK

[6] = molecular target: T2, Peroxiredoxin-2 (Homo sapiens) (UniProt P32119); experiment: Binding affinity to wild type recombinant human N-terminal 6His-tagged peroxiredoxin-2 expressed in Escherichia coli BL21 after 1 hr by LC-MS/MS analysis
T2 sequence (whole entry): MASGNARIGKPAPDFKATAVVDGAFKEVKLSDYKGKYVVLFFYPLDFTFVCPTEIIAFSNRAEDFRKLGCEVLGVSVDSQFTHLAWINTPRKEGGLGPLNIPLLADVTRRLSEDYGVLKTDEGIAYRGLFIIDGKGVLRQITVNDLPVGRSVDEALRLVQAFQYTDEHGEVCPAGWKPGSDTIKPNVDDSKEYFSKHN

[7] = tested on: NB-4; experiment: Cytotoxicity against human NB4 cells assessed as reduction in cell viability after 24 hrs by CellTiter-Glo assay; format: functional, cell-based; conditions: NB-4, 24 h
[8] = Cytotoxicity against human NB4-LR2 cells assessed as reduction in cell viability after 24 hrs by CellTiter-Glo assay; format: functional, cell-based
[9] = tested on: HL-60; experiment: Cytotoxicity against human HL60 cells assessed as reduction in cell viability after 24 hrs by CellTiter-Glo assay; format: functional, cell-based; conditions: HL-60, 24 h
[10] = tested on: Ramos; experiment: Cytotoxicity against human Ramos cells assessed as reduction in cell viability after 24 hrs by CellTiter-Glo assay; format: functional, cell-based
[11] = tested on: SUD4; experiment: Cytotoxicity against human SUDHL4 cells assessed as reduction in cell viability after 24 hrs by CellTiter-Glo assay; format: functional, cell-based; conditions: SU-DHL-4, 24 h
[12] = tested on: OCI-Ly10; experiment: Cytotoxicity against human OCI-LY10 cells assessed as reduction in cell viability after 24 hrs by CellTiter-Glo assay; format: functional, cell-based; conditions: OCI-Ly10, 24 h
[13] = tested on: A549; experiment: Cytotoxicity against human A549 cells assessed as reduction in cell viability after 24 hrs by CellTiter-Glo assay; format: functional, cell-based
[14] = molecular target: T1, Peroxiredoxin-1 (Homo sapiens); experiment: Binding affinity to wild type recombinant human N-terminal 6His-tagged peroxiredoxin-1 expressed in Escherichia coli BL21 up to 200 uM by immunoblot analysis
[15] = tested on: NB-4; experiment: Cytotoxicity against human NB4 cells assessed as reduction in cell viability at 3 uM measured up to 72 hrs by trypan blue exclusion assay; format: functional, cell-based
[16] = tested on: NB-4; experiment: Induction of cell differentiation in human NB4 cells assessed as reduction in nucleus/cytoplasm ratio at 3 uM after 6 days by Wright-Giemsa staining based assay; format: functional
[17] = tested on: NB-4; experiment: Induction of cell differentiation in human NB4 cells assessed as CD11b positive cells at 3 uM after 6 days by flow cytometry (reference value: 7.25 +/- 1.18%); format: functional
[18] = tested on: NB-4; experiment: Induction of cell differentiation in human NB4 cells at 3 uM after 6 days by light microscopy based NBT reduction assay; format: functional
[19] = Induction of cell differentiation in human NB4-LR2 cells assessed as CD11b+ expression at 4 uM after 24 hrs by flow cytometry (reference value: 6.36%); format: functional
[20] = tested on: U-937; experiment: Induction of cell differentiation in human U937 cells assessed as CD11b+ expression at 4 uM after 24 hrs by flow cytometry (reference value: 13.46%); format: functional
[21] = tested on: NB-4; experiment: Induction of cell differentiation in human NB4 cells assessed as CD11b+ expression at 3 uM after 3 days by flow cytometry (reference value: 7.5%); format: functional
[22] = tested on: NB-4; experiment: Potentiation of ATRA-induced cell differentiation in human NB4 cells assessed as CD11b+ expression at 3 uM after 3 days by flow cytometry (reference value: 56.1%); format: functional
[23] = Induction of cell differentiation in human NB4-LR2 cells assessed as CD11b+ expression at 2 uM after 3 days by flow cytometry (reference value: 13.3%); format: functional
[24] = Potentiation of ATRA-induced cell differentiation in human NB4-LR2 cells assessed as CD11b+ expression at 2 uM after 3 days by flow cytometry (reference value: 28.8%); format: functional
[25] = Induction of cell differentiation in human MR2 cells assessed as CD11b+ expression at 2 uM after 3 days by flow cytometry (reference value: 4.3%); format: functional
[26] = Potentiation of ATRA-induced cell differentiation in human MR2 cells assessed as CD11b+ expression at 2 uM after 3 days by flow cytometry (reference value: 24.5%); format: functional
[27] = tested on: NB-4; experiment: Induction of ROS accumulation in human NB4 cells at 3 uM by CM-H2DCFDA probe based flow cytometry; format: functional, cell-based
[28] = tested on: NB-4; experiment: Induction of cell differentiation in human NB4 cells assessed as CD11b+ expression at 3 uM pretreated with NAC for 4 hrs followed by compound addition measured after 6 days by flow cytometry (reference value: 4.58 +/- 1.53%); format: functional
[29] = tested on: NB-4; experiment: Induction of cell differentiation in human NB4 cells assessed as CD11b+ expression at 3 uM measured after 6 days by flow cytometry (reference value: 4.58 +/- 1.53%); format: functional
[30] = tested on: NB-4; experiment: Cytotoxicity against human NB4 cells assessed as reduction in cell viability pretreated with NAC for 4 hrs followed by compound addition measured after 24 hrs by trypan blue assay; format: functional, cell-based

C=C1C(=O)C2C3=C(CCC4C(C)(C)CCCC34C)CC1C2O (racemic)
viability at 24 h, 20 µM [1]: 80%
Activity [2]: Non-Toxic
pIC50 [3]: > 5.30
pIC50 [4]: > 5.30

C=C1C(=O)[C@H]2C3=C(CC[C@H]4C(C)(C)CCC[C@]34C)C[C@@H]1[C@H]2O
Activity [5]: Active
Activity [6]: Active
pIC50 [7]: 5.74
pIC50 [8]: 5.80
pIC50 [9]: 5.74
pIC50 [10]: 5.72
pIC50 [11]: 5.89
pIC50 [12]: 5.43
Activity [13]: Active
Activity [14]: Active
Activity [15]: inactive
Activity [16]: Active
Activity [17]: 40.7%
Activity [18]: 40%
Activity [19]: 21.4%
Activity [20]: 33.13%
Activity [21]: 16.4%
Activity [22]: 80.6%
Activity [23]: 29.4%
Activity [24]: 49.5%
Activity [25]: 4.9%
Activity [26]: 32.6%
Activity [27]: Active
Activity [28]: 13.2%
Activity [29]: 44.97%
Activity [30]: inactive

C=C1C(=O)[C@@H]2C3=C(CC[C@@H]4C(C)(C)CCC[C@@]34C)C[C@H]1[C@@H]2O
pIC50 [7]: 5.33
pIC50 [8]: 5.51
pIC50 [9]: 5.51
pIC50 [10]: 5.29
pIC50 [11]: 5.32
pIC50 [12]: 5.08
Activity [18]: 17%
